{
  "source": "patent US20150368195A1",
  "about": "“INDOLINE COMPOUNDS FOR TREATMENT AND/OR PREVENTION OF INFLAMMATION DISEASES” (Taipei Medical University, priority 2014, published 2015)",
  "key": {"HDAC2": {"target": "T1, HDAC2 (Homo sapiens, UniProt Q92769)", "T1 construct": "purchased", "T1 sequence (Q92769 whole entry, species assumed, canonical isoform)": "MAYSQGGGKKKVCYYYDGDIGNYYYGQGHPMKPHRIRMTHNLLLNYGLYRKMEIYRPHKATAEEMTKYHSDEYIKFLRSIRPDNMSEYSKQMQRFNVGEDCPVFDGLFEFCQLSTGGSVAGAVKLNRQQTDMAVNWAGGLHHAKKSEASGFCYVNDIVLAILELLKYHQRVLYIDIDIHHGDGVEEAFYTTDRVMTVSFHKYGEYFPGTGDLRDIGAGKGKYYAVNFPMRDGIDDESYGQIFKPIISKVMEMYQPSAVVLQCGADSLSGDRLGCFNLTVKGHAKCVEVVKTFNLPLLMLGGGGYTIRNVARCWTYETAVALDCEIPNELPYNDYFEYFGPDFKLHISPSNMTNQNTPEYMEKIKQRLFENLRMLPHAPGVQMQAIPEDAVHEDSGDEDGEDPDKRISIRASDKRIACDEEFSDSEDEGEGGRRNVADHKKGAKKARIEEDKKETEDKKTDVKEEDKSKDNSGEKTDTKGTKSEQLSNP", "assay": "recombinant HDAC isoform inhibition (kit)", "format": "biochemical", "conditions": "mean ± SEM, three replicates", "description": "(§1) Using kits that contained different recombinant HDAC isoforms, we evaluated the ability of MPT0G009 to inhibit HDAC-mediated deacetylation of lysine residues on the substrates that were provided."}, "HDAC1": {"target": "T2, HDAC1 (Homo sapiens, UniProt Q13547)", "T2 construct": "purchased", "T2 sequence (Q13547 whole entry, species assumed, canonical isoform)": "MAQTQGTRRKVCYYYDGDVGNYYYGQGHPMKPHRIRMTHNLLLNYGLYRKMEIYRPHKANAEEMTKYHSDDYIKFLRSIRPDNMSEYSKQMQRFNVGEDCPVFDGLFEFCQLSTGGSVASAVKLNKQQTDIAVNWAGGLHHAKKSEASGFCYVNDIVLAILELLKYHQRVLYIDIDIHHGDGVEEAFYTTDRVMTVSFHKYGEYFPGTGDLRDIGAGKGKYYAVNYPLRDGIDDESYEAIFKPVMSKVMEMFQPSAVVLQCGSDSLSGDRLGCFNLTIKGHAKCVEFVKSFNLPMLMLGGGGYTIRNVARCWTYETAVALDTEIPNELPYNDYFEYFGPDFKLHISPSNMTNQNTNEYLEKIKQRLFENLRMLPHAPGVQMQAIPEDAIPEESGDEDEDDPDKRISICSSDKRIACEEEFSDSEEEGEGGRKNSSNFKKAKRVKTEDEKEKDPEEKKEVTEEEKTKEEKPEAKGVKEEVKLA", "assay": "recombinant HDAC isoform inhibition (kit)", "format": "biochemical", "conditions": "mean ± SEM, three replicates", "description": "as §1"}, "HDAC3": {"target": "T3, HDAC3 (Homo sapiens, UniProt O15379)", "T3 construct": "purchased", "T3 sequence (O15379 whole entry, species assumed, canonical isoform)": "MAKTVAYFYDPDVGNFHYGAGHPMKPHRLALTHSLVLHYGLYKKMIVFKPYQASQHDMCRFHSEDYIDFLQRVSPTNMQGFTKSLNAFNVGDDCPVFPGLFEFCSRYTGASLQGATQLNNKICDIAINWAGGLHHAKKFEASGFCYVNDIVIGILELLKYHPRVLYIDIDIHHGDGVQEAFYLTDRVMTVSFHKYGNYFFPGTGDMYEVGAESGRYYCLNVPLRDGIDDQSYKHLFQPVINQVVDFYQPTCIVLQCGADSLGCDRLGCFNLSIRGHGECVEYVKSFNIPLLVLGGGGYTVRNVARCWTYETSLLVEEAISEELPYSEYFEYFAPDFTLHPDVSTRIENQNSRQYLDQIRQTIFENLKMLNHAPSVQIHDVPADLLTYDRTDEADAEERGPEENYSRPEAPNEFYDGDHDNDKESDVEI", "T3 sequence (Q9Y618 395-489 partner limits assumed, species assumed)": "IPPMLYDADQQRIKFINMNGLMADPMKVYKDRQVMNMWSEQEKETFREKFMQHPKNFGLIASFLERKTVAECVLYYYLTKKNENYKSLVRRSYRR", "assay": "recombinant HDAC isoform inhibition (kit)", "format": "biochemical", "conditions": "mean ± SEM, three replicates", "description": "as §1"}, "HDAC8": {"target": "T4, HDAC8 (Homo sapiens, UniProt Q9BY41)", "T4 construct": "purchased", "T4 sequence (Q9BY41 whole entry, canonical isoform)": "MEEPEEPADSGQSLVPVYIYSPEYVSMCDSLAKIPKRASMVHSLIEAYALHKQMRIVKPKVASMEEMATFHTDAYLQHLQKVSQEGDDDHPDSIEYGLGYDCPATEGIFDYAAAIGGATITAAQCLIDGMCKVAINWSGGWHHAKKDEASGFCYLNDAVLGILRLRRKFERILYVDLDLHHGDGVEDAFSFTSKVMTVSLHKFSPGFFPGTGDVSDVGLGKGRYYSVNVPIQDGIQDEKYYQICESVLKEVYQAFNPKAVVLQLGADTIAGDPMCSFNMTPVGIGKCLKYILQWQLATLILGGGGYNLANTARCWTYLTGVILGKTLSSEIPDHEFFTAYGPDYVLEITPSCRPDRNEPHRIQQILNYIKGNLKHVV", "assay": "recombinant HDAC isoform inhibition (kit)", "format": "biochemical", "conditions": "mean ± SEM, three replicates, read-out: IC50 DHAC8", "description": "as §1"}, "HDAC6": {"target": "T5, HDAC6 (Homo sapiens, UniProt Q9UBN7)", "T5 construct": "purchased", "T5 sequence (Q9UBN7 whole entry, species assumed, canonical isoform)": "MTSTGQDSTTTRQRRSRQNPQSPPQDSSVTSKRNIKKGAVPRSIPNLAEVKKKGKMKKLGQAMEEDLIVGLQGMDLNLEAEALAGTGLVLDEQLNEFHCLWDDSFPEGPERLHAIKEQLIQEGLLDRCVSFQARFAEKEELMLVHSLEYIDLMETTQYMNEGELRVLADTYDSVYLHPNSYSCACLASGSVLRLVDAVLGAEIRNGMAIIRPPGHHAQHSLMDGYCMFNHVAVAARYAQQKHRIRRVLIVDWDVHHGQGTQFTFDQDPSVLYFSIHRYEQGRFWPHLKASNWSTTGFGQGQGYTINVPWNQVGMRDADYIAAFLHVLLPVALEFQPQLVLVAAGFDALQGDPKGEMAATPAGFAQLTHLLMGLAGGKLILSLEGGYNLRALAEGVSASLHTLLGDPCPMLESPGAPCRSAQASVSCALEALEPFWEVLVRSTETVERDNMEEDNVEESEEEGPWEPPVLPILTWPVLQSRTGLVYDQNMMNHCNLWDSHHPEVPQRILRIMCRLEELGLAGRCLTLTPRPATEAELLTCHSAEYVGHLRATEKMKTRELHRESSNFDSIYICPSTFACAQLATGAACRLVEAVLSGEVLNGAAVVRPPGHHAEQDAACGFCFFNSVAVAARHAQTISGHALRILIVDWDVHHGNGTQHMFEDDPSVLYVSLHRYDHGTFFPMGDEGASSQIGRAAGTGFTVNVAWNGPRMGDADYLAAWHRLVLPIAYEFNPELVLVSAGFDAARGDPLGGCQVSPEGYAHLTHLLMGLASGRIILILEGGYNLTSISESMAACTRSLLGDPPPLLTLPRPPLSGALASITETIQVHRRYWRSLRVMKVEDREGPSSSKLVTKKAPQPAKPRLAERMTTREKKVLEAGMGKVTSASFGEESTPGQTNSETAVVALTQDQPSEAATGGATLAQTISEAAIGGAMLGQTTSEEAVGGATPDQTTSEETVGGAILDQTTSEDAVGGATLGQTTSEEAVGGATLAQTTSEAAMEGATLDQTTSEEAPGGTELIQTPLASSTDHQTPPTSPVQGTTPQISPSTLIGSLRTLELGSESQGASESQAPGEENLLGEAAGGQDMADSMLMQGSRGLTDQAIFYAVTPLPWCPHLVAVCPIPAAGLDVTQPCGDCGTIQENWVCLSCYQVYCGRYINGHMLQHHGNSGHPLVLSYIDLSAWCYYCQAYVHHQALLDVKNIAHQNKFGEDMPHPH", "assay": "recombinant HDAC isoform inhibition (kit)", "format": "biochemical", "conditions": "mean ± SEM, three replicates", "description": "as §1"}, "p21": {"system": "p21", "assay": "p21 expression by flow cytometry or western blot in RA-FLS", "format": "cell-based", "conditions": "24 h, 1 μM MPT0G009 or 3 μM SAHA", "description": "(§2) (FIG. 1A) Structure of MPT0G009. […] Results in (FIGS. 1B-E) and (FIG. 1G) are means±SEM's for three independent experiments, *p<0.05 and **p<0.01 compared with no added inhibitor."}, "histone H3 (Acetyl-H3) [1]": {"system": "histone H3 (Acetyl-H3)", "assay": "histone H3 acetylation, Western blot, RA-FLS", "format": "cell-based", "conditions": "1 μM MPT0G009 or 30 μM SAHA; 6, 12, 24 h; starting at 12 h", "method": "Then cells were harvested and cell lysates were prepared for Western blot analysis of the indicated proteins. (FIG. 5C) RA-FLS were incubated for 1 h with or without the proteasome inhibitor, MG132 (1 μM). […] Results shown are representative of three independent experiments.\nThis was a proteasome-dependent effect because it was reduced by pretreatment with the proteasome inhibitor, MG132 (1 μM; FIG. 5c)."}, "[2]": {"assay": "maximum tolerated dose (MTD)", "format": "in vivo", "conditions": "for Lethality / Change of body weight Day 7 / Change of body weight Day 14 / Change of body weight Day 21: qd × 7; for Change of body weight Day 7 / Change of body weight Day 14 / Change of body weight Day 21: mean ± SEM"}, "[3]": {"system": "inducible nitric oxide synthase (iNOS)", "assay": "LPS-induced iNOS protein expression, Western blot, RAW264.7", "format": "cell-based, Mouse", "conditions": "RAW264.7, 0.1-10 μM, LPS 25 ng/mL 24 h", "method": "(§3) Then the cells were harvested and whole cell extracts were prepared for Western blot analysis for iNOS and COX-2. The relative protein expressions are presented as mean±SEM for four replicates. *p<0.05 compared to the LPS-treated group."}, "nitric oxide (NO)": {"system": "nitric oxide (NO)", "assay": "LPS-induced nitric oxide production in RAW 264.7 macrophages", "format": "cell-based, Mouse", "method": "Nitrite concentration was determined using a dilution of sodium nitrite as a standard.\n(§4) Furthermore, the anti-inflammatory effects of MPT0G009 was evaluated. […] These supernatants were then assayed for PGE2, NO, and IL-6."}, "IL-6": {"system": "IL-6", "assay": "IL-1β-induced IL-6 production by RA-FLS", "format": "cell-based", "conditions": "MPT0G009 0.1, 1, 10 μM; SAHA 0.3, 3, 30 μM; IL-1β 10 ng/mL 24 h", "method": "as §2, §4"}, "prostaglandin E2 (PGE2)": {"system": "prostaglandin E2 (PGE2)", "assay": "LPS-induced PGE2 production in RAW 264.7 macrophages", "format": "cell-based, Mouse", "method": "as §4"}, "cyclooxygenase-2 (COX-2)": {"system": "cyclooxygenase-2 (COX-2)", "assay": "LPS-induced COX-2 protein expression, Western blot, RAW264.7", "format": "cell-based, Mouse", "conditions": "RAW264.7, 0.1-10 μM, LPS 25 ng/mL 24 h", "method": "as §3"}, "[4]": {"assay": "in vivo rat pharmacokinetic profiling", "set-up": "species or system rats", "description": "The pharmokinetic parameters of MPT0G009 in rats after single-dose intravenous (i.v.) and oral administration are summarized in Table 2. […]."}, "[5]": {"system": "carrageenan-induced hind paw edema", "assay": "carrageenan-induced hind paw edema", "quoted_text": "A 0.5% (w/v) suspension of carrageenan in normal saline was administered to male Wistar rats (7-weeks) by intradermal injection into the base of the right hind paw. […] A positive control group was included in which rats were pretreated with 5 mg/kg Indomethacin. […] The results are expressed as the mean±SEM, with n=5. *p<0.05 compared to the control group; #p<0.05 for the comparison of the indicated groups.\nAnimals were divided into four groups (n=5). 0.5% (w/v) suspension of carrageenan in normal saline was administered to male Wistar rats (7-weeks) by intradermal injection into the base of the right hind paw. […] A positive control group was included in which rats were pretreated with 5 mg/kg Indomethacin. Three hours after carrageenan administration, the thickness and volume of the right hind paw were measured by digital caliper and digital plethysmometer (Diagnostic & Research Instruments CO., Ltd, Taipei, Taiwan), respectively."}, "histone H3 (Acetyl-H3) [6]": {"system": "histone H3 (Acetyl-H3)", "assay": "histone H3 acetylation, Western blot, HIG-82 synoviocytes", "format": "cell-based", "conditions": "3 μM MPT0G009 or 60 μM SAHA; 6, 12, 24 h; starting at 6 h"}, "interleukin-6 (IL-6)": {"system": "interleukin-6 (IL-6)", "assay": "LPS-induced IL-6 production in RAW 264.7 macrophages", "conditions": "Mus musculus, RAW264.7, read-out: IC50 IL-6"}, "HIG-82 synoviocytes": {"system": "HIG-82 synoviocytes", "assay": "SRB anti-proliferation assay", "format": "cell-based", "conditions": "24 or 48 h incubation", "description": "as §2"}, "RA-FLS": {"system": "RA-FLS", "assay": "SRB anti-proliferation assay", "format": "cell-based", "conditions": "24 or 48 h incubation", "description": "as §2"}, "[7]": {"conditions": "MPT0G009 0.1, 1, 10 μM, SAHA 0.3, 3, 30 μM, LPS 25 ng/mL 24 h"}, "[8]": {"conditions": "Mus musculus, RAW264.7, LPS-stimulated RAW 264.7 macrophages, mean ± SEM, three experiments"}},
  "note": "“Also recorded” adds a separate entry of the source.",
  "data": [
    {"smiles": "COc1ccc(S(=O)(=O)N2CCc3cc(C=CC(=O)NO)ccc32)cc1", "note": "[Compound 9, 3-[1-(4-methoxybenzenesulfonyl)-2,3-dihydro-1H-indol-5-yl]-N-Hydroxyacrylamide]", "values": [
      {"measurement": "IC50", "setting": "HDAC2", "result": "5.16 ± 0.76", "unit": "nM"},
      {"measurement": "IC50", "setting": "HDAC1", "result": "4.62 ± 0.81", "unit": "nM"},
      {"measurement": "IC50", "setting": "HDAC3", "result": 1.91, "unit": "nM"},
      {"measurement": "IC50", "setting": "HDAC8", "result": 22.5, "unit": "nM"},
      {"measurement": "IC50", "setting": "HDAC6", "result": "8.43 ± 0.72", "unit": "nM"},
      {"measurement": "expression of p21", "setting": "p21", "result": "significantly increased"},
      {"measurement": "acetylation of histone H3 in RA-FLS", "setting": "histone H3 (Acetyl-H3) [1]", "result": "significant hyperacetylation of histone H3"},
      {"measurement": "Lethality", "setting": "[2]; 250 mg/kg po", "result": 0, "unit": "%"},
      {"measurement": "Change of body weight Day 7", "setting": "[2]; 250 mg/kg po", "result": "+8.7 ± 0.5%"},
      {"measurement": "Change of body weight Day 14", "setting": "[2]; 250 mg/kg po", "result": "+17.0 ± 0.4%"},
      {"measurement": "Change of body weight Day 21", "setting": "[2]; 250 mg/kg po", "result": "+22.6 ± 0.6%"},
      {"measurement": "Lethality", "setting": "[2]; 500 mg/kg po", "result": 0, "unit": "%"},
      {"measurement": "Change of body weight Day 7", "setting": "[2]; 500 mg/kg po", "result": "+1.6 ± 0.3%"},
      {"measurement": "Change of body weight Day 14", "setting": "[2]; 500 mg/kg po", "result": "+16.5 ± 0.6%"},
      {"measurement": "Change of body weight Day 21", "setting": "[2]; 500 mg/kg po", "result": "+24.0 ± 0.9%"},
      {"measurement": "Lethality", "setting": "[2]; 1000 mg/kg po", "result": 0, "unit": "%"},
      {"measurement": "Change of body weight Day 7", "setting": "[2]; 1000 mg/kg po", "result": "+4.4 ± 0.6%"},
      {"measurement": "Change of body weight Day 14", "setting": "[2]; 1000 mg/kg po", "result": "+12.0 ± 0.7%"},
      {"measurement": "Change of body weight Day 21", "setting": "[2]; 1000 mg/kg po", "result": "+15.3 ± 0.8%"},
      {"measurement": "adverse effects", "setting": "[2]; mice, dosage of up to 1000 mg/kg/day, within three weeks", "result": "No significant adverse effects"},
      {"measurement": "iNOS protein expression", "setting": "[3]", "result": "concentration-dependently inhibitory effects"},
      {"measurement": "iNOS protein expression", "setting": "[3]; listed as compound 9", "result": "significantly inhibited"},
      {"measurement": "NO production by RAW264.7 cells", "setting": "nitric oxide (NO); [7]", "result": "inhibited"},
      {"measurement": "IC50", "setting": "nitric oxide (NO); [8]", "result": 1070, "unit": "nM"},
      {"measurement": "IL-6 production by RA-FLS", "setting": "IL-6", "result": "inhibited"},
      {"measurement": "PGE2 production by RAW264.7 cells", "setting": "prostaglandin E2 (PGE2); [7]", "result": "inhibited"},
      {"measurement": "IC50", "setting": "prostaglandin E2 (PGE2); [8]", "result": 520, "unit": "nM"},
      {"measurement": "COX-2 protein expression", "setting": "cyclooxygenase-2 (COX-2)", "result": "concentration-dependently inhibitory effects"},
      {"measurement": "COX-2 protein expression", "setting": "cyclooxygenase-2 (COX-2); listed as compound 9", "result": "significantly inhibited"},
      {"measurement": "T1/2", "setting": "[4]; rat, in vivo, iv, 2 mg/kg", "result": 6.74, "unit": "h"},
      {"measurement": "Vd", "setting": "[4]; rat, in vivo, iv, 2 mg/kg", "result": 25.21, "unit": "L/kg"},
      {"measurement": "T1/2", "setting": "[4]; rat, in vivo, po, 20 mg/kg", "result": 9.53, "unit": "h"},
      {"measurement": "F", "setting": "[4]; rats, po 20 mg/kg, MPT0G009", "result": 13.0, "unit": "%"},
      {"measurement": "paw thickness reduced compared to control", "setting": "[5]; compound 9 25 mg/kg oral, 3 h after carrageenan", "result": 21.3, "unit": "%"},
      {"measurement": "carrageenan-induced hind paw edema", "setting": "[5]; oral, 1 h before carrageenan, compound 9 25 mg/kg, SAHA 200 mg/kg, Indomethacin 5 mg/kg, measured 3 h after", "result": "significantly inhibited; also recorded: suppress"},
      {"measurement": "acetylation of histone H3 in HIG-82 synoviocytes", "setting": "histone H3 (Acetyl-H3) [6]", "result": "significant hyperacetylation of histone H3"},
      {"measurement": "IC50", "setting": "interleukin-6 (IL-6)", "result": 10, "unit": "nM"},
      {"measurement": "proliferation of HIG-82 synoviocytes", "setting": "HIG-82 synoviocytes", "result": "concentration-dependent anti-proliferative effects"},
      {"measurement": "proliferation of RA-FLS", "setting": "RA-FLS", "result": "concentration-dependent anti-proliferative effects"}
    ]}
  ]
}
